The source of these data is patent US20240150277A1, “Covalent PPARG inverse-agonists” (Bayer Aktiengesellschaft, priority 2022, published 2024).

Where two headings read alike, the source gives them in different places.

In assay [1] the test system is UMUC9 cells. As to the kind of experiment: Proliferation UMUC9 H2B-GFP assay (Incucyte). The class given is cell-based. Particulars: 7 days of treatment; for IC50: Day 1 subtracted, percentage of DMSO control; for Emax: UM-UC-9, 168 h. Here is the method:
Proliferation UMUC9 H2B-GFP assay
Instrument: Incucyte® (Sartorius).
Description: Incucyte® Proliferation Assay measures cell proliferation based on nuclei count using live-cell time-lapse imaging. […] Measurements were performed on the day of treatment (Day 1 reading) and after 7 days of treatment (Day 8 reading). Green fluorescence in cell nuclei is measured using the instrument (Image Channels: Phase, Green; Acquisition time: 300 ms; Magnification: 4×).
Analysis: Selected metrics for analysis: Phase Object Confluence (Percent), Nuclei Count (1/Well) and Total Nuclei Area (μm^2/Well). Day 1 measurements were subtracted from each Day 8 measurement and expressed as percentage of the vehicle (DMSO) control. Percentage proliferation values were then plotted against compound concentration using GraphPad PRISM software. The Sigmoidal 4PL X is log (concentration) model of […] was used. Relative IC50 values and % efficacy (span) is reported below.

The target of assay [2] is T1, PPARG receptors (Homo sapiens, UniProt P37231).
T1 construct: leading to PPARG dependent expression of the NanoLuc@ Luciferase; endogenous in cells
T1 sequence (P37231 1-505): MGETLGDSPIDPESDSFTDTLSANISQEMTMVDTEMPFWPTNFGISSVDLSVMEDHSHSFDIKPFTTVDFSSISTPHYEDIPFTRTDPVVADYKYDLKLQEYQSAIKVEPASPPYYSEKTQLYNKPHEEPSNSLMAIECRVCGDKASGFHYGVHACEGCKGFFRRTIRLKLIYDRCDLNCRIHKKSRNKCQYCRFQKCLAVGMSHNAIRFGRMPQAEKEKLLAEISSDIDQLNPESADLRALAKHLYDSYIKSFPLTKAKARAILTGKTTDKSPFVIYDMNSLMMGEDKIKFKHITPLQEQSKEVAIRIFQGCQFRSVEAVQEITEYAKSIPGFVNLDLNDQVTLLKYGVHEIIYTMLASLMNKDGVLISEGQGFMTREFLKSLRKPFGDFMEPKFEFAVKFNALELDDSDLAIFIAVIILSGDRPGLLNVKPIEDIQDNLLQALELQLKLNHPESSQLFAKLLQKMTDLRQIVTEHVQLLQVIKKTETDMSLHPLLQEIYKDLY
As to the kind of experiment: RT-112-FABP4-NLuc Reporter Gene Assay (inverse agonism). The note with it: incubated over night; for IC50 / PPARG_RT-112_FABP4_NLuc_inverse agonist Efficacy - [%]: bladder cancer cell line RT-112/84, NanoLuc in FABP4 3′ UTR; for IC50: 50 μM to 0.03 nM; for Emax: RT112/84, read-out: PPARG_RT-112_FABP4_NLuc_inverse agonist Efficacy - [%], bladder cancer cell line RT-112/84, NanoLuc in FABP4 3′ UTR. The class given is cell-based. Here is the method:
Inverse agonists reduce the basal expression of the Luciferase resulting in a decrease of the Luciferase signal after addition of substrate and cell lysis. To exclude toxic effects of the compounds a parallel measurement of cell viability was performed based on the CellTiter Glo Assay (Promega).
On the next day 10 μl of test compounds dissolved in DMEM/F12 2% FBS and 0,01% BSA are placed in the wells of the microtiter plates. Final concentrations ranged from 50 μM to 0.03 nM. […] On the next day the NanoLuc Luciferase activity was measured by addition of 40 μl of NanoLuc substrate and lysis buffer (Promega, Madison, Wisconsin) diluted in 2 mM Ca-tyrode buffer (20 mM HEPES, 130 mM NaCl, 5 mM KCl, 5 mM NaHCO3, 2 mM MgCl2, pH 7,4). The resulting light signal was measured for 60 seconds in a luminometer. Every sample was tested in quadruples and mean values were used to calculate the IC50 values and efficacies of the compounds.
On the technique in general: Reporter assays use an easily measured gene product as a stand-in for the process of interest.

Where [3] appears, read: relative IC50, read-out: UM-UC-9 GFP proliferation IC50 -.
Where [4] appears, read: PPARG_RT-112_FABP4_NLuc_inverse agonist IC50 - [mol/l].
[5] abbreviates: read-out: PPARG_RT-112_FABP4_NLuc_inverse agonist IC50 - [mol/l].

Consider `Cc1cc(N2CCCC(O)C2)ccc1NC(=O)c1cc(C(=O)NCc2ccc(F)c(F)c2)c(F)cc1Cl` (single isomer, unassigned) [Example 5, 4-chloro-N′-[(3,4-difluorophenyl)methyl]-6-fluoro-N^3-{4-[3-hydroxypiperidin-1-yl]-2-methylphenyl}benzene-1,3-dicarboxamide], for which the “UM-UC-9 GFP proliferation Efficacy - [%]” value in assay [1] (% efficacy (span)) is listed as 78.67%. Besides, the figures for the IC50 in assay [1] (setting [3]) and in assay [2] (setting [4]) were 5.38 nM and 1.27 nM, respectively. The Emax in assay [2] came to 116%.

For the compound `Cc1ccc(NC(=O)c2cc(C(=O)NCc3ccccc3)c(F)cc2Cl)cc1` [Example 24, N^1-benzyl-4-chloro-6-fluoro-N^3-(4-methylphenyl)benzene-1,3-dicarboxamide], the values for the Emax in assay [1] (% efficacy (span)) and in assay [2] were 24.4% and 92.5%, respectively. The IC50 in assay [1] (UM-UC-9, relative IC50) worked out at 25.1 nM; in assay [2] (setting [4]), 7.65 nM.

Regarding `Cc1cc(C(F)(F)F)ccc1NC(=O)c1cc(C(=O)NC(CO)c2ccccc2)c(F)cc1Cl` (single isomer, unassigned) [Example 30, 4-chloro-6-fluoro-N^1-[(1R*)-2-hydroxy-1-phenylethyl]-N^3-[2-methyl-4-(trifluoromethyl)phenyl]benzene-1,3-dicarboxamide], the Emax in assay [1] (% efficacy (span)) worked out at 49.6%. Also, the IC50 in assay [1] (UM-UC-9, relative IC50) came out at 66.1 nM; in assay [2] (setting [4]), 17.5 nM. Further, in assay [2], the “PPARG_RT-112_FABP4_NLuc_inverse agonist Efficacy - [%]” value was 105.50%.

As for `Cc1cc(-c2nnco2)ccc1NC(=O)c1cc(C(=O)NCc2ccc(F)c(F)c2)c(F)cc1Cl` [Example 10, 4-chloro-N^1-[(3,4-difluorophenyl)methyl]-6-fluoro-N^3-[2-methyl-4-(1,3,4-oxadiazol-2-yl)phenyl]benzene-1,3-dicarboxamide], the Emax in assay [1] (% efficacy (span)) is 86.7%; in assay [2] it was 108%. Also, the IC50 in assay [2] (setting [5]) amounted to 4.8 nM.

Regarding `O=C(NCc1ccc(F)cc1)c1cc(C(=O)Nc2ccc(Oc3ccccc3)cn2)c(Cl)cc1F` [Example 21, 4-chloro-6-fluoro-N^1-[(4-fluorophenyl)methyl]-N^3-(5-phenoxypyridin-2-yl)benzene-1,3-dicarboxamide], the Emax in assay [1] (% efficacy (span)) amounted to 56.1%; in assay [2] it was 142%. Besides, the IC50 amounted to 10.6 nM in assay [1] (UM-UC-9, relative IC50) and 1.48 nM in assay [2] (setting [4]).

Consider `O=C(NCc1ccc(F)c(F)c1)c1ccc(Cl)c(C(=O)Nc2ccccc2)c1` [Example 44, 4-chloro-N^1-[(3,4-difluorophenyl)methyl]-N^3-phenylbenzene-1,3-dicarboxamide], for which the Emax came to 103% in assay [1] (% efficacy (span)) and 51.5% in assay [2]. Besides, in assay [2] (setting [5]), the IC50 is 7400 nM.

For `Cc1ccccc1NC(=O)c1cc(C(=O)NCc2ccccc2)c(F)cc1Cl` [Example 25, N1-benzyl-4-chloro-6-fluoro-N^3-(2-methylphenyl)benzene-1,3-dicarboxamide], the IC50 in assay [1] (UM-UC-9, relative IC50) was greater than 6000 nM; in assay [2] (setting [4]), 40 nM. In addition, in assay [2], the Emax worked out at 99.3%.

Take `Cc1cc(N2CCCC(O)C2)ccc1NC(=O)c1cc(C(=O)NCc2ccc(F)c(F)c2)c(F)cc1Cl` (single isomer, unassigned) [Example 6, 4-chloro-N′-[(3,4-difluorophenyl)methyl]-6-fluoro-N^3-{4-[3-hydroxypiperidin-1-yl]-2-methylphenyl}benzene-1,3-dicarboxamide]: in assay [1] (% efficacy (span)), the Emax came to 79.5%. Further, the IC50 was 21.7 nM in assay [1] (setting [3]) and 4.1 nM in assay [2] (setting [4]). The “PPARG_RT-112_FABP4_NLuc_inverse agonist Efficacy - [%]” value in assay [2] was determined as 134.50%.

For the compound `Cc1ccccc1CNC(=O)c1ccc(Cl)c(C(=O)Nc2ccccc2)c1` [Example 47, 4-chloro-N^1-[(2-methylphenyl)methyl]-N^3-phenylbenzene-1,3-dicarboxamide], the Emax came out at 66.9% in assay [1] (% efficacy (span)) and 92% in assay [2]. Also, the IC50 came out at 2240 nM in assay [1] (UM-UC-9, relative IC50) and 895 nM in assay [2] (setting [4]).

For `COc1ccccc1CNC(=O)c1cc(Cl)c(Cl)c(C(=O)Nc2ccc(N3CCOCC3)cn2)c1` [Example 38, 4,5-dichloro-N^1-(2-methoxybenzyl)-N^3-(5-morpholinopyridin-2-yl)isophthalamide], the Emax is 49.5% in assay [1] (% efficacy (span)) and 98.5% in assay [2]. The IC50 in assay [1] (UM-UC-9, relative IC50) came out at 4.23 nM; in assay [2] (setting [4]), 0.73 nM.

With `C#Cc1cc(F)c(C(=O)NCc2ccc(F)c(F)c2)cc1C(=O)Nc1ccccc1` [Example 40, N^1-(3,4-difluorobenzyl)-4-ethynyl-6-fluoro-N^3-phenylisophthalamide], the Emax in assay [1] (% efficacy (span)) came out at 72.1%; in assay [2] it was 114%. The IC50 in assay [1] (UM-UC-9, relative IC50) was determined as 391 nM; in assay [2] (setting [4]) it was 1600 nM.

Consider `Cc1ccccc1NC(=O)c1cc(C(=O)NCc2ccccc2)cc(Cl)c1Br` [Example 50, N^1-benzyl-4-bromo-5-chloro-N^3-(2-methylphenyl)benzene-1,3-dicarboxamide], for which the results for the Emax in assay [1] (% efficacy (span)) and in assay [2] were 50.8% and 108%, respectively. Besides, the IC50 in assay [1] (UM-UC-9, relative IC50) is 5.06 nM; in assay [2] (setting [4]), 0.45 nM.

`Cc1cc(N2CCCC(O)C2)ccc1NC(=O)c1cc(C(=O)NCc2ccc(F)c(F)c2)c(F)cc1Cl` (centres unmarked) [Example 11, 4-chloro-N^1-[(3,4-difluorophenyl)methyl]-6-fluoro-N^3-{4-[3-hydroxypiperidin-1-yl]-2-methylphenyl}benzene-1,3-dicarboxamide]: the Emax in assay [1] (% efficacy (span)) stood at 104%; in assay [2], 103%. Further, the IC50 in assay [1] (UM-UC-9, relative IC50) was found to be 8.23 nM; in assay [2] (setting [4]) it was 4.2 nM.

Turning to `Cc1cccc(-c2nc3cc(NC(=O)c4cc(C(=O)NCc5ccc(F)c(F)c5)c(F)c(C)c4Cl)ccc3o2)c1` [Example 20, 4-chloro-N^1-[(3,4-difluorophenyl)methyl]-6-fluoro-5-methyl-N^3-[2-(3-methylphenyl)-1,3-benzoxazol-5-yl]benzene-1,3-dicarboxamide], the Emax in assay [1] (% efficacy (span)) stood at 69.6%; in assay [2], 114%. The IC50 in assay [1] (UM-UC-9, relative IC50) came out at 5.91 nM; in assay [2] (setting [4]) it was 0.455 nM.

For the compound `O=C(NCc1ccc(F)c(F)c1)c1cc(C(=O)Nc2ccc(OC(F)F)cc2)c(Cl)cc1F` [Example 3, 4-chloro-N^3-[4-(difluoromethoxy)phenyl]-N^1-[(3,4-difluorophenyl)methyl]-6-fluorobenzene-1,3-dicarboxamide], the IC50 in assay [1] (UM-UC-9, relative IC50) was greater than 6000 nM; in assay [2] (setting [4]), 3.15 nM. The Emax in assay [2] was determined as 90.5%.

Consider `Cc1cccc(-c2nc3cc(NC(=O)c4cc(C(=O)NCc5ccc(F)c(F)c5)c(F)cc4Cl)ccc3o2)c1` [Example 39, 4-chloro-N^1-(3,4-difluorobenzyl)-6-fluoro-N^3-(2-(m-tolyl)benzo[d]oxazol-5-yl)isophthalamide], for which the values for the Emax in assay [1] (% efficacy (span)) and in assay [2] were 88.7% and 95.5%, respectively. For the same compound, the IC50 in assay [1] (UM-UC-9, relative IC50) is 34.2 nM; in assay [2] (setting [5]) it was 6.55 nM.

In the case of `O=C(NCc1ccc(F)c(F)c1)c1cc(Cl)c(Cl)c(C(=O)Nc2cnccn2)c1` [Example 42, 4,5-dichloro-N^1-(3,4-difluorobenzyl)-N^3-(pyrazin-2-yl)isophthalamide], the Emax in assay [1] (% efficacy (span)) came to 68.6%; in assay [2], 102%. Besides, the IC50 stood at 1.94 nM in assay [1] (UM-UC-9, relative IC50) and 4.7 nM in assay [2] (setting [4]).

As for `O=C(NCc1ccc(F)c(F)c1)c1cc(Cl)c(Cl)c(C(=O)Nc2ccc(C(F)(F)F)cn2)c1` [Example 13, 4,5-dichloro-N′-[(3,4-difluorophenyl)methyl]-N^3-[5-(trifluoromethyl)pyridin-2-yl]benzene-1,3-dicarboxamide], the Emax in assay [1] (% efficacy (span)) worked out at 77%; in assay [2], 77.5%. In addition, the IC50 in assay [1] (UM-UC-9, relative IC50) was 4800 nM; in assay [2] (setting [4]), 0.4 nM.
